Blank lines part the entries; values can stand above or below the compound they belong to.
How the values were obtained:
[1] = Toxic dose in DBA/2 mice; Values ranges from: 82.6-306; assay type: toxicity; settings: DBA/2, mouse, in vivo
[2] = Relative lipophilicity expressed as Rm value; assay type: physicochemical; settings: octanol/water
[3] = Ratio between TD50 and ED50 from the clonic phase of audiogenic seizures in mice; assay type: ADME, organism-based; settings: mouse, in vivo; read-out: Protective index
[4] = Anticonvulsant activity against audiogenic seizures in DBA/2 mice expressed as ED50 values in tonic phase; Values ranges from: 8.98-27.3; assay type: functional; settings: Mus musculus
[5] = Toxic dose in DBA/2 mice; Values ranges from: 59.5-88.2; assay type: toxicity; settings: DBA/2, mouse, in vivo
[6] = Anticonvulsant activity against audiogenic seizures in DBA/2 mice expressed as ED50 values in clonic phase; […]; assay type: functional; settings: Mus musculus
[7] = Toxic dose in DBA/2 mice; Values ranges from: 44.3-81.6; assay type: toxicity; settings: DBA/2, mouse, in vivo
[8] = Anticonvulsant activity against maximal electroshock (MES) induced seizures in Swiss mice; Values ranges from: 29.9-57.3; assay type: functional; settings: Mus musculus
[9] = Anticonvulsant activity against audiogenic seizures in DBA/2 mice in clonic phase at a time interval of 45 min after intraperitoneal administration; Values ranges from: 13.8-41.2; assay type: functional; settings: Mus musculus, ip, 0.75 h
[10] = Anticonvulsant activity against AMPA induced seizures in DBA/2 mice expressed as ED50 values in clonic phase; Values ranges from: 27.1-47.3; assay type: functional; settings: Mus musculus
[11] = Anticonvulsant activity against audiogenic seizures in DBA/2 mice in clonic phase at a time interval of 120 min after intraperitoneal administration; assay type: functional; settings: Mus musculus, ip, 2 h
[12] = Anticonvulsant activity against audiogenic seizures in DBA/2 mice expressed as ED50 values in tonic phase; Values ranges from: 2.47-23.1; assay type: functional; settings: Mus musculus
[13] = Anticonvulsant activity against audiogenic seizures in DBA/2 mice in clonic phase at a time interval of 15 min after intraperitoneal administration; Values ranges from: 25.1-42.6; assay type: functional; settings: Mus musculus, ip, 0.25 h
[14] = Anticonvulsant activity against audiogenic seizures in DBA/2 mice in clonic phase at a time interval of 60 min after intraperitoneal administration; Values ranges from: 18.8-47.0; assay type: functional; settings: Mus musculus, ip, 1 h
[15] = Anticonvulsant activity against audiogenic seizures in DBA/2 mice in clonic phase at a time interval of 90 min after intraperitoneal administration; Values ranges from: 30.5-62.3; assay type: functional; settings: Mus musculus, ip, 1.5 h
[16] = Anticonvulsant activity against audiogenic seizures in DBA/2 mice after pretreatment with Aniracetam expressed as ED50 values in tonic phase; Values ranges from: 21.9-46.8; assay type: functional; settings: Mus musculus
[17] = Anticonvulsant activity against KA induced seizures in swiss mice; Values ranges from: 30.3-50.1; assay type: functional; settings: Mus musculus
[18] = Anticonvulsant activity against audiogenic seizures in DBA/2 mice expressed as ED50 values in clonic phase; Values ranges from: 9.04-49.8; assay type: functional; settings: Mus musculus
[19] = Anticonvulsant activity against audiogenic seizures in DBA/2 mice after pretreatment with Aniracetam expressed as ED50 values in clonic phase; Values ranges from: 40.9-79.2; assay type: functional; settings: Mus musculus
[20] = Anticonvulsant activity against ATPA induced seizures in DBA/2 mice expressed as ED50 values in clonic phase; Values ranges from: 25.8-57.7; assay type: functional; settings: Mus musculus
[21] = Anticonvulsant activity against AMPA induced seizures in DBA/2 mice expressed as ED50 values in tonic phase; Values ranges from: 32.6-62.7; assay type: functional; settings: Mus musculus
[22] = Anticonvulsant activity against Pentylenetetrazole (PTZ) induced seizures in Swiss mice; Values ranges from: 30.9-78.8; assay type: functional; settings: Mus musculus
[23] = Anticonvulsant activity against audiogenic seizures in DBA/2 mice in clonic phase at a time interval of 30 min after intraperitoneal administration; Values ranges from: 9.04-49.8; assay type: functional; settings: Mus musculus, ip, 0.5 h
[24] = Anticonvulsant activity against ATPA induced seizures in DBA/2 mice expressed as ED50 values in tonic phase; Values ranges from: 22.7-44.8; assay type: functional; settings: Mus musculus
[25] = Toxic dose in DBA/2 mice; Values ranges from: 52.0-194; assay type: toxicity; settings: DBA/2, mouse, in vivo
[26] = Anticonvulsant activity against audiogenic seizures in DBA/2 mice expressed as ED50 values in clonic phase; assay type: functional; settings: Mus musculus
[27] = Anticonvulsant activity against audiogenic seizures in DBA/2 mice expressed as ED50 values in tonic phase; assay type: functional; settings: Mus musculus
[28] = Ratio between TD50 and ED50 from the clonic phase of audiogenic seizures; assay type: ADME; settings: read-out: Protective index
[29] = Toxic dose in DBA/2 mice; assay type: toxicity; settings: DBA/2, mouse, in vivo
[30] = Anticonvulsant activity against audiogenic seizures in DBA/2 mice after pretreatment with Aniracetam expressed as ED50 values in clonic phase; assay type: functional, Mus musculus
[31] = Anticonvulsant activity against AMPA induced seizures in DBA/2 mice expressed as ED50 values in tonic phase; assay type: functional; settings: Mus musculus
[32] = Anticonvulsant activity against AMPA induced seizures in DBA/2 mice expressed as ED50 values in clonic phase; assay type: functional; settings: Mus musculus
[33] = Anticonvulsant activity against audiogenic seizures in DBA/2 mice in clonic phase at a time interval of 30 min; assay type: functional; settings: Mus musculus, 0.5 h
[34] = Anticonvulsant activity against ATPA induced seizures in DBA/2 mice expressed as ED50 values in tonic phase; assay type: functional; settings: Mus musculus
[35] = Anticonvulsant activity against ATPA induced seizures in DBA/2 mice expressed as ED50 values in clonic phase; assay type: functional; settings: Mus musculus
[36] = Anticonvulsant activity against maximal electroshock (MES) induced seizures in Swiss mice.; assay type: functional; settings: Mus musculus
[37] = Anticonvulsant activity against audiogenic seizures in DBA/2 mice in clonic phase at a time interval of 120 min; assay type: functional; settings: Mus musculus, 2 h
[38] = Anticonvulsant activity against Pentylenetetrazole (PTZ) induced seizures in Swiss mice.; assay type: functional; settings: Mus musculus
[39] = Anticonvulsant activity against audiogenic seizures in DBA/2 mice in clonic phase at a time interval of 90 min; assay type: functional; settings: Mus musculus, 1.5 h
[40] = Anticonvulsant activity against audiogenic seizures in DBA/2 mice in clonic phase at a time interval of 15 min; assay type: functional; settings: Mus musculus, 0.25 h
[41] = Anticonvulsant activity against audiogenic seizures in DBA/2 mice in clonic phase at a time interval of 60 min; assay type: functional; settings: Mus musculus, 1 h
[42] = Anticonvulsant activity against audiogenic seizures in DBA/2 mice in clonic phase at a time interval of 45 min; assay type: functional; settings: Mus musculus, 0.75 h
[43] = Anticonvulsant activity against KA induced seizures in DBA/2 mice; assay type: functional; settings: Mus musculus
[44] = Toxic does was determined in DBA/2 mice; Values ranges from: 47.5-122; assay type: toxicity; settings: DBA/2, mouse
[45] = Anticonvulsant activity against ATPA induced seizures in DBA/2 mice. activity is expressed as ED50 values in tonus phase; Values ranges from: 32.4-57.3; assay type: functional; settings: Mus musculus
[46] = Anticonvulsant activity against audiogenic seizures in DBA/2 mice in clonic phase at a time interval of 45 min after intraperitoneal administration; Values ranges from: 27.2-52.1; assay type: functional; settings: Mus musculus, ip, 0.75 h
[47] = Anticonvulsant activity against ATPA induced seizures in DBA/2 mice. activity is expressed as ED50 values in clonus phase; Values ranges from: 45.4-89.7; assay type: functional; settings: Mus musculus

SMILES: O=C1Cc2cc3c(cc2C(c2ccccc2)=NN1)OCO3
- TD50 [1]: 159 µmol/kg
- Rm [2]: -0.142
- selectivity ratio [3]: 3.7

SMILES: Nc1cccc(-c2nnc(O)c3cc4c(cc23)OCO4)c1
- ED50 [4]: 15.7 µmol/kg
- TD50 [5]: 72.4 µmol/kg
- ED50 [6]: 23.3 µmol/kg
- Rm [2]: -0.399
- selectivity ratio [3]: 3.1

SMILES: Nc1cccc(C2=NNC(=O)Cc3cc4c(cc32)OCO4)c1
- Rm [2]: -0.372
- TD50 [25]: 101 µmol/kg
- selectivity ratio [3]: 5.6

SMILES: O=[N+]([O-])c1ccc(-c2nnc(O)c3cc4c(cc23)OCO4)cc1
- ED50 [26]: > 100 µmol/kg
- ED50 [27]: > 100 µmol/kg

SMILES: CC1=NN=C(c2ccc(N)cc2)c2cc3c(cc2C1)OCO3 [GYKI-52466]
- TD50 [44]: 76.1 µmol/kg
- ED50 [45]: 43.1 µmol/kg
- ED50 [46]: 37.3 µmol/kg
- ED50 [47]: 63.8 µmol/kg
- Rm [2]: -0.304
- selectivity ratio [3]: 2.1

The next lines start with results.

- Rm [2]: -0.454
SMILES: Nc1ccc(-c2nnc(O)c3cc4c(cc23)OCO4)cc1
- TD50 [7]: 60.1 µmol/kg
- ED50 [8]: 41.4 µmol/kg
- ED50 [9]: 23.8 µmol/kg
- ED50 [10]: 35.8 µmol/kg
- ED50 [11]: > 50 µmol/kg
- ED50 [12]: 7.56 µmol/kg
- ED50 [13]: 32.7 µmol/kg
- ED50 [14]: 29.7 µmol/kg
- ED50 [15]: 43.6 µmol/kg
- ED50 [16]: 32 µmol/kg
- ED50 [17]: 38.9 µmol/kg
- ED50 [18]: 21.2 µmol/kg
- ED50 [19]: 56.9 µmol/kg
- ED50 [20]: 38.6 µmol/kg
- ED50 [21]: 45.2 µmol/kg
- ED50 [22]: 49.4 µmol/kg
- ED50 [23]: 21.2 µmol/kg
- ED50 [24]: 31.9 µmol/kg
- selectivity ratio [3]: 2.8

- Rm [2]: -0.235
SMILES: CCNC(=O)n1nc(-c2ccc(N)cc2)c2cc3c(cc2c1=O)OCO3
- ED50 [26]: 42.6 µmol/kg
- selectivity ratio [28]: 2.1
- ED50 [27]: 35.1 µmol/kg
- TD50 [29]: 91.1 µmol/kg

- Rm [2]: 0.108
SMILES: Nc1ccc(-c2nn(C(=O)NC3CCCCC3)c(=O)c3cc4c(cc23)OCO4)cc1
- ED50 [26]: 28.4 µmol/kg
- selectivity ratio [28]: 2.2
- ED50 [27]: 26.2 µmol/kg
- TD50 [29]: 63.8 µmol/kg

- Rm [2]: 0.002
SMILES: CCCCNC(=O)n1nc(-c2ccc(N)cc2)c2cc3c(cc2c1=O)OCO3
- ED50 [26]: 3.25 µmol/kg
- ED50 [30]: 12.3 µM/kg
- ED50 ([30]; Mus musculus, read-out: ED50): 17.6 µmol/kg
- ED50 [31]: 47.4 µmol/kg
- ED50 [32]: 37 µmol/kg
- selectivity ratio [28]: 6.3
- ED50 [27]: 2.23 µmol/kg
- TD50 [29]: 20.4 µmol/kg
- ED50 [33]: 3.25 µmol/kg
- ED50 [34]: 30.1 µmol/kg
- ED50 [35]: 36.2 µmol/kg
- ED50 [36]: 33.1 µmol/kg
- ED50 [37]: 44.1 µmol/kg
- ED50 [38]: 41.9 µmol/kg
- ED50 [39]: 26.6 µmol/kg
- ED50 [40]: 13.9 µmol/kg
- ED50 [41]: 11.2 µmol/kg
- ED50 [42]: 8.63 µmol/kg
- ED50 [43]: 36.2 µmol/kg

Source: ChEMBL document CHEMBL1133456, “Synthesis and anticonvulsant activity of novel and potent 6,7-methylenedioxyphthalazin-1(2H)-ones” (J Med Chem, 2000)
